Measurements: PMC12669040, “Tumour-specific STING agonist synthesis via a two-component prodrug system” (Nature Chemistry, 2025)
Values joined by “and” are separate entries in the source; they are usually repeats but may differ in a detail not shown here. Equal entries are not always repeated. Where two headings read alike, the source gives them in different places.

Experiments:
[1] = test system: non-tumour zebrafish larvae; assay: Maximum tolerated concentration (MTC) on non-tumour zebrafish larvae; type: in vivo, zebrafish (Danio rerio)
Description: Extended Data Fig. 7 Additional zebrafish experiment data. a MTC of β-GlcA-N1/E4 treatments on non-tumor zebrafish larvae. […] Toxicity was assessed daily by counting the total number of dead larvae and checking for the presence of morphologic changes such cardiac edemas or curved tails. Control groups were treated with the highest matched DMSO concentration (0.04%, v/v). b Left: representative image of phagocytosis in a xenograft treated with β-GlcA-N1/E4 and β-glucuronidase at 2dpi in Tg(mpeg1:mcherry-F). Each yellow arrow indicates a phagocytic event. Right: n° of phagocytic events at 2dpi. Data are presented as mean ± SEM. Statistical analysis follows that of Fig. 5. Source data

[2] = Haematotoxicity, CT26mβGUS model; type: in vivo, BALB/c mice; set-up: WBC / RBC: unit not given here
Text: MCV: Mean Corpuscular Volume; MCH: Mean Corpuscular Haemoglobin; WBC: White Blood Cell Count; PLT: Platelet Count; RDW-CV: Red Cell Distribution Width - Coefficient of Variation; MPV: Mean Platelet Volume. RBC: red blood cell count; HGB: haemoglobin; HCT: haematocrit; MCV: Mean Corpuscular Volume; MCH: Mean Corpuscular Haemoglobin; WBC: White Blood Cell Count; PLT: Platelet Count; RDW-CV: Red Cell Distribution Width - Coefficient of Variation; MPV: Mean Platelet Volume. […] Source data

[3] = test system: MC38 tumours; conditions: for Tumor Size: individual mice, * = excluded once a death was recorded in the group
[4] = LC–MS/MS analysis of in situ SC2S formation (tissue distribution); type: in vivo, BALB/c mice; conditions: for concentration at 4 h / concentration at 2 h / concentration at 1 h: BALB/c, mouse
Description: The blood, tumour, lung, kidney, liver and spleen were collected for each mouse. Three mice treated with vehicle were included as control samples. Whole blood samples were centrifuged at 2,000g, 4 °C for 10 min. Supernatant plasma was aspirated into an Eppendorf tube and frozen at −80 °C. Tumour and organ tissues were snap-frozen in liquid nitrogen and stored at −80 °C until further analysis. The plasma samples (10-µl aliquots) were prepared by protein precipitation extraction. The organic layer was evaporated to dryness and reconstituted in a solution equivalent to the initial chromatographic starting conditions. The tissue samples were analysed by homogenization to give a 200 […] concentration. The homogenised tissue samples (10-µl aliquots) were then taken through the same preparation procedure as the plasma samples. All samples were analysed using the PKB Core Facility’s 6500 LC–MS/MS system, in negative ion mode. The chromatography was carried out using a gradient method on a Kinetex EVO C18 column (50 × 2.1 mm). Analysis was conducted in four batches, consisting of calibration standards, quality control samples, blank control samples, internal standard-only samples and study samples. Calibration curves were constructed using linear regression with a 1/x^2 weighting. A calibration range of 1–500 ng ml^−1 (5–2,500 ng g^−1 in tissue) was used. Precision and accuracy were well within the PK/B core facility’s acceptance criteria of ±20%. The LC–MS/MS method was developed and qualified ahead of the sample analysis. The performance of the method met normal Core Facility acceptance criteria for analysis.

[5] = Day0, individual mice, in % (unit assumed)
[6] = Day0, individual mice, in pg (unit assumed)
[7] = Day5, individual mice, in % (unit assumed)
[8] = Day5, individual mice, in fL (unit assumed)
[9] = Day5, individual mice, in g/dL (unit assumed)

Question: Which results are given for `COc1cc2cc(C(=O)CCC(=O)O)sc2cc1OC` [MSA2]?
Answer: MSA2 MTC, event per larva (0/1) ([1]; 15 μM, day 3): 0; MSA2 MTC, survival event code per larva ([1]; 15 μM, Days 3, one cell per larva (0/1 code)): 0; MSA2 MTC, event per larva (0/1) ([1]; 75 μM, day 1): 0; MSA2 MTC, event per larva (0/1) ([1]; 75 μM, day 3): 1; MSA2 MTC, survival event code per larva ([1]; 75 μM, Days 3, one cell per larva (0/1 code)): 0; MSA2 MTC, survival event code per larva ([1]; 150 μM, Days 3, one cell per larva (0/1 code)): 0; HGB ([2]; Day0, individual mice): 16.5 and 15.6 (2×) and 14.5; MPV ([2]; Day0, individual mice): 6.5 and 7.1 and 7.9; PLT ([2]; Day0, individual mice): 1210 and 892 and 696 and 576; RBC ([2]; Day0, individual mice): 10.94 and 10.54 and 10.66 and 9.7; RDW-CV ([2]; Day0, individual mice): 14.4 and 15.1 (2×) and 15.3; WBC ([2]; Day0, individual mice): 7.1 and 7.7 and 8.8 and 8.2; HCT [2, 5]: 53.4 and 52.7 and 52.8 and 48.8; MCV ([2]; Day0, individual mice, in fL (unit assumed)): 48.8 and 50 and 49.5 and 50.3; MCH [2, 6]: 15.1 and 14.8 and 14.6 and 14.9; MCH ([2]; Day5, individual mice): 14.9 pg (3×) and 15 pg; MPV ([2]; Day5, individual mice): 6.6 and 7.6 (2×) and 6.8; PLT ([2]; Day5, individual mice): 1244 and 920 and 808 and 855; RBC ([2]; Day5, individual mice): 10 and 8.31 and 9.87 and 7.92; RDW-CV ([2]; Day5, individual mice): 16 and 14.5 and 14.4 (2×); WBC ([2]; Day5, individual mice): 8.6 and 8 and 9.3 and 7.4; HCT [2, 7]: 51.7 and 43.1 and 50.2 and 40.6; MCV [2, 8]: 51.7 and 51.9 and 50.9 and 51.3; HGB [2, 9]: 14.9 and 12.4 and 14.8 and 11.8; red blood cells, haemoglobin and haematocrit ([2]; MSA2 5 mg kg^−1 IT): modest decreases; Tumor Size ([3]; day 39): 279.4986* mm^3; Tumor Size ([3]; day 53): 0* mm^3; Survival: Days ([3]; mouse, in vivo): 60 days and 49 days and 35 days

Question: With `COc1cc2sc(C(=O)CCC(=O)O)cc2cc1SCCSc1cc2cc(C(=O)CCC(=O)O)sc2cc1OC` [SC2S] as the compound, how does the “SC2S MTC, event per larva (0/1)” value ([1]; 0.62 μM, day 3) read?
Answer: The value was 1.

Question: And the “SC2S MTC, event per larva (0/1)” value ([1]; 3.1 μM, day 1)?
Answer: Its value is 0.

Question: And the “SC2S MTC, event per larva (0/1)” value ([1]; 3.1 μM, day 3)?
Answer: Its value is 0.

Question: And the “SC2S MTC, survival event code per larva” value ([1]; 6.2 μM, Days 3, one cell per larva (0/1 code))?
Answer: The value was 1.

Question: And the “Blood Calculated Concentration” value ([4]; 1h, individual samples)?
Answer: The value was “BLQ”.

Question: And the “Kidney Calculated Concentration” value ([4]; 1h, individual samples)?
Answer: The value was “BLQ”.

Question: And the “Lung Calculated Concentration” value ([4]; 1h, individual samples)?
Answer: The value was “BLQ”.

Question: What about the “Tumour Calculated Concentration” value ([4]; 1h, individual samples) of the same compound?
Answer: The value was 64.6 ng/mL and 323 ng/g and 11.6 ng/mL and 58.1 ng/g and 12.1 ng/mL and 60.6 ng/g.

Question: What about the “Blood Calculated Concentration” value ([4]; 2h, individual samples) of the same compound?
Answer: Its value is “BLQ”.

Question: What about the “Liver Calculated Concentration” value ([4]; 2h, individual samples) of the same compound?
Answer: The value was “BLQ”.

Question: What about the “Spleen Calculated Concentration” value ([4]; 2h, individual samples) of the same compound?
Answer: Its value is “BLQ”.

Question: What about the “Tumour Calculated Concentration” value ([4]; 2h, individual samples) of the same compound?
Answer: Its value is 17.8 ng/mL and 89.2 ng/g and 62.2 ng/mL and 311 ng/g and 4.45 ng/mL and 22.2 ng/g.

Question: What about the “Kidney Calculated Concentration” value ([4]; 4h, individual samples) of the same compound?
Answer: Its value is “BLQ”.

Question: What about the “Spleen Calculated Concentration” value ([4]; 4h, individual samples) of the same compound?
Answer: The value was “BLQ”.

Question: What about the “Tumour Calculated Concentration” value ([4]; 4h, individual samples) of the same compound?
Answer: The value was 12.1 ng/mL and 60.4 ng/g and 19.6 ng/mL and 98.2 ng/g and 4.66 ng/mL and 23.3 ng/g.

Question: And the “Kidney Calculated Concentration” value ([4]; 8h, individual samples)?
Answer: Its value is “BLQ”.

Question: And the “Liver Calculated Concentration” value ([4]; 8h, individual samples)?
Answer: Its value is “BLQ”.

Question: What about the “Spleen Calculated Concentration” value ([4]; 8h, individual samples) of the same compound?
Answer: Its value is “BLQ”.

Question: What about the “Tumour Calculated Concentration” value ([4]; 8h, individual samples) of the same compound?
Answer: The value was “BLQ”.

Question: What about the “Kidney Calculated Concentration” value ([4]; 24h, individual samples) of the same compound?
Answer: Its value is “BLQ”.

Question: What about the “Spleen Calculated Concentration” value ([4]; 24h, individual samples) of the same compound?
Answer: Its value is “BLQ”.

Question: What about the concentration at 4 h ([4]; liver, 4h, read-out: Liver Mean concentration) of the same compound?
Answer: Its concentration at 4 h is 9.3 ng/g.

Question: What about the concentration at 4 h ([4]; liver, other: β-GlcA-N1 intraperitoneal (IP) + E4 intratumoral (IT), 4h, individual samples, read-out: Liver Calculated Concentration) of the same compound?
Answer: The concentration at 4 h was 1.86 ng/mL and 9.3 ng/g.

Question: And the concentration at 2 h ([4]; plasma, 2h, individual samples, read-out: Blood Calculated Concentration)?
Answer: Its concentration at 2 h is 3.03 ng/mL.

Question: And the concentration at 2 h ([4]; plasma, 2h, read-out: Blood Mean concentration)?
Answer: The concentration at 2 h was 3.03 ng/mL.

Question: And the concentration at 1 h ([4]; plasma, other: β-GlcA-N1 intraperitoneal (IP) + E4 intratumoral (IT), 1h, individual samples, read-out: Blood Calculated Concentration)?
Answer: Its concentration at 1 h is 1.29 ng/mL.

Question: What about the concentration at 1 h ([4]; plasma, other: β-GlcA-N1 intraperitoneal (IP) + E4 intratumoral (IT), 1h, read-out: Blood Mean concentration) of the same compound?
Answer: The concentration at 1 h was 1.29 ng/mL.

Question: And the concentration at 2 h ([4]; tumour, 2h, read-out: Tumour Mean concentration)?
Answer: The concentration at 2 h was 141 ng/g.

Question: What about the concentration at 4 h ([4]; tumour, 4h, read-out: Tumour Mean concentration) of the same compound?
Answer: Its concentration at 4 h is 60.7 ng/g.

Question: What about the concentration at 1 h ([4]; tumour, other: β-GlcA-N1 intraperitoneal (IP) + E4 intratumoral (IT), 1h, read-out: Tumour Mean concentration) of the same compound?
Answer: Its concentration at 1 h is 147 ng/g.

Question: What about the MCV ([2]; Day0, individual mice) of the same compound?
Answer: The MCV was 55 and 51.6 and 50 (2×).

Question: And the MPV ([2]; Day0, individual mice)?
Answer: The MPV was 8 and 7.6 and 6.7 and 7.2.

Question: And the PLT ([2]; Day0, individual mice)?
Answer: Its PLT is 670 and 896 and 1143 and 870.

Question: What about the RBC ([2]; Day0, individual mice) of the same compound?
Answer: The RBC was 9.65 and 10.31 and 10.59 and 10.89.

Question: What about the WBC ([2]; Day0, individual mice) of the same compound?
Answer: Its WBC is 11 and 10 and 8.7 and 8.4.

Question: And the HCT [2, 5]?
Answer: Its HCT is 53.1 and 53.2 and 53 and 54.5.

Question: And the RDW-CV [2, 5]?
Answer: The RDW-CV was 14.7 and 15.1 and 14.8 and 15.

Question: What about the HGB ([2]; Day0, individual mice, in g/dL (unit assumed)) of the same compound?
Answer: Its HGB is 14.6 and 15.3 and 15.8 and 16.3.

Question: What about the MCH [2, 6] of the same compound?
Answer: The MCH was 15.1 and 14.8 and 14.9 and 15.

Question: And the MCH ([2]; Day5, individual mice)?
Answer: Its MCH is 15.1 and 14.7 and 15.2 (2×).

Question: And the MPV ([2]; Day5, individual mice)?
Answer: Its MPV is 7.6 (2×) and 6.6.

Question: What about the PLT ([2]; Day5, individual mice) of the same compound?
Answer: Its PLT is 155 and 541 and 770 and 1292.

Question: What about the RBC ([2]; Day5, individual mice) of the same compound?
Answer: Its RBC is 8.22 and 9.33 and 9.82 and 10.19.

Question: What about the WBC ([2]; Day5, individual mice) of the same compound?
Answer: Its WBC is 9.2 and 10.4 and 6.6 (2×).

Question: What about the HCT [2, 7] of the same compound?
Answer: The HCT was 42 and 49.9 and 50.4 and 52.

Question: And the RDW-CV [2, 7]?
Answer: Its RDW-CV is 14 and 14.3 and 16.7 and 15.7.

Question: What about the MCV [2, 8] of the same compound?
Answer: Its MCV is 51.1 and 50.3 and 51.3 and 51.

Question: What about the HGB [2, 9] of the same compound?
Answer: Its HGB is 12.4 and 13.7 and 14.9 and 15.5.
